Laboratory results: the CheMixHub ionic liquid set

Assay: xn = mol fraction of the nth substance listed

O=C([O-])C1=NN(c2ccc(S(=O)(=O)[O-])cc2)C(=O)C1N=Nc1ccc(S(=O)(=O)[O-])cc1.[Na+].[Na+].[Na+] (stereo not given) + C[N+](C)(C)Cc1ccccc1.[Cl-] + O
electrical conductivity [S/m], 101.3 kPa, frequency 0.001 MHz
Settings	298.15 K	308.15 K	318.15 K
x1 = 0.0001802, x2 = 1.802e-05	0.132	0.158	0.197
x1 = 0.0001803, x2 = 5.405e-05	0.142	0.177	0.213
x1 = 0.0001803, x2 = 9.008e-05	0.168	0.187	0.228
x1 = 0.0004504, x2 = 1.801e-05	0.231	0.276	0.355
x1 = 0.0004505, x2 = 5.403e-05	0.254	0.317	0.388
x1 = 0.0004507, x2 = 9.005e-05	0.303	0.331	0.413
x1 = 0.0007204, x2 = 1.801e-05	0.331	0.392	0.498
x1 = 0.0007206, x2 = 5.402e-05	0.359	0.447	0.535
x1 = 0.0007209, x2 = 9.003e-05	0.419	0.477	0.558
x1 = 0.0009903, x2 = 1.8e-05	0.421	0.512	0.641
x1 = 0.0009906, x2 = 5.4e-05	0.463	0.588	0.677
x1 = 0.0009909, x2 = 9e-05	0.57	0.614	0.723
x1 = 0.00126, x2 = 1.8e-05	0.519	0.638	0.777
x1 = 0.00126, x2 = 5.399e-05	0.583	0.716	0.826
x1 = 0.001261, x2 = 8.998e-05	0.684	0.739	0.863
x1 = 0.00153, x2 = 1.799e-05	0.641	0.753	0.915
x1 = 0.00153, x2 = 5.397e-05	0.705	0.841	0.972
x1 = 0.001531, x2 = 8.995e-05	0.812	0.88	1.01

viscosity [mPa·s], 101.3 kPa
Settings	298.15 K	308.15 K	318.15 K
x1 = 0.0001802, x2 = 1.802e-05	0.905	0.747	0.629
x1 = 0.0001803, x2 = 5.405e-05	0.923	0.769	0.646
x1 = 0.0001803, x2 = 9.008e-05	0.941	0.789	0.666
x1 = 0.0004504, x2 = 1.801e-05	0.923	0.764	0.644
x1 = 0.0004505, x2 = 5.403e-05	0.944	0.788	0.664
x1 = 0.0004507, x2 = 9.005e-05	0.962	0.809	0.685
x1 = 0.0007204, x2 = 1.801e-05	0.938	0.778	0.658
x1 = 0.0007206, x2 = 5.402e-05	0.962	0.803	0.679
x1 = 0.0007209, x2 = 9.003e-05	0.983	0.826	0.701
x1 = 0.0009903, x2 = 1.8e-05	0.952	0.791	0.67
x1 = 0.0009906, x2 = 5.4e-05	0.977	0.818	0.693
x1 = 0.0009909, x2 = 9e-05	1	0.842	0.717
x1 = 0.00126, x2 = 1.8e-05	0.964	0.803	0.681
x1 = 0.00126, x2 = 5.399e-05	0.992	0.832	0.707
x1 = 0.001261, x2 = 8.998e-05	1.015	0.858	0.731
x1 = 0.00153, x2 = 1.799e-05	0.977	0.815	0.693
x1 = 0.00153, x2 = 5.397e-05	1.007	0.847	0.72
x1 = 0.001531, x2 = 8.995e-05	1.032	0.873	0.746

CO + C[N+](C)(CCCS(=O)(=O)O)C1CCCCC1.Cc1ccc(S(=O)(=O)[O-])cc1
101 kPa, x2 = 0
Settings	viscosity [mPa·s]
303.15 K	0.5044
308.15 K	0.4775
313.15 K	0.4515
318.15 K	0.4244
323.15 K	0.4033
328.15 K	0.3883

CCCC[n+]1ccn(C)c1.[I-] + F[B-](F)(F)F.[Li+]
Settings	electrical conductivity [S/m]
308.15 K, 101 kPa, x2 = 0	0.0286

CC[n+]1ccn(C)c1.O=S(=O)([N-]S(=O)(=O)C(F)(F)F)C(F)(F)F + F[B-](F)(F)F.[Li+]
101 kPa, x1 = 1
Settings	electrical conductivity [S/m]
288.15 K	0.611
298.15 K	0.883
333.15 K	2.18

CC[n+]1ccn(C)c1.O=S(=O)([N-]S(=O)(=O)C(F)(F)F)C(F)(F)F + F[P-](F)(F)(F)(F)F.[Li+]
101 kPa, x1 = 1
Settings	electrical conductivity [S/m]
288.15 K	0.611
298.15 K	0.883
333.15 K	2.18

C[N+](CCO)(CCO)CCOCCO.[Cl-] + NC(N)=O
100 kPa, x1 = 0.5
Settings	viscosity [mPa·s]
328.15 K	560
343.15 K	221
348.15 K	169
353.15 K	131

CC(O)C(=O)[O-].C[N+](C)(C)CCO + O
101 kPa
Settings	viscosity [mPa·s]
293.15 K, x2 = 0.0272	5800
293.15 K, x2 = 0.5026	174.9
293.15 K, x2 = 0.7993	26.26
293.15 K, x2 = 0.8998	7.312
298.15 K, x2 = 0	559
298.15 K, x2 = 0.4038	187.4
298.15 K, x2 = 0.5858	87.96
298.15 K, x2 = 0.7993	20.92
303.15 K, x2 = 0.0992	308.5
308.15 K, x2 = 0.3008	144.2
308.15 K, x2 = 0.8998	4.497
313.15 K, x2 = 0.8998	3.897
318.15 K, x2 = 0.7993	9.616
323.15 K, x2 = 0.701	15.61
323.15 K, x2 = 0.7993	8.175
328.15 K, x2 = 0.7993	7.029
333.15 K, x2 = 0.2048	52.54
333.15 K, x2 = 0.3008	43.97
333.15 K, x2 = 0.701	11.18
348.15 K, x2 = 0.8998	1.767
353.15 K, x2 = 0.0992	30
353.15 K, x2 = 0.7993	3.729
353.15 K, x2 = 0.8998	1.614

CCC(=O)[O-].COCCn1cc[n+](C)c1 + O
100 kPa
Settings	electrical conductivity [S/m]	viscosity [mPa·s]
288.15 K, x1 = 0.8302	0.318	81.8
288.15 K, x1 = 0.8877	0.241	96.6
288.15 K, x1 = 1	0.109	125.5
293.15 K, x1 = 0.9474	0.222	84.9
298.15 K, x1 = 0.8302	0.426	46.94
298.15 K, x1 = 0.9474	0.285	63.84
298.15 K, x1 = 1	0.228	70.11
303.15 K, x1 = 0.8579	0.483	39.8
313.15 K, x1 = 0.9474	0.588	31.35
318.15 K, x1 = 0.8579	0.839	20
318.15 K, x1 = 0.9474	0.726	24.42

CCCCCC[n+]1ccccc1.N#C[N-]C#N + O
100 kPa
Settings	electrical conductivity [S/m]	viscosity [mPa·s]
298.15 K, x1 = 0.9308	–	50.4
298.15 K, x1 = 0.9582	0.494	–
298.15 K, x1 = 0.9762	0.477	–
298.15 K, x2 = 0.01463	–	56.3
303.15 K, x1 = 0.9663	–	43.33
308.15 K, x1 = 0.924	0.796	–
318.15 K, x1 = 0.9146	–	22.52
318.15 K, x1 = 0.9409	1.09	–
318.15 K, x1 = 0.9663	–	24.43
328.15 K, x1 = 0.9146	–	15.96
328.15 K, x1 = 0.924	1.47	–
328.15 K, x1 = 0.9487	–	16.85
328.15 K, x1 = 0.9762	1.35	–
338.15 K, x1 = 0.9075	1.94	–
338.15 K, x1 = 0.9146	–	12.16
338.15 K, x1 = 0.9409	1.85	–
338.15 K, x2 = 0.01463	–	13.8

CCCC[n+]1cccc(C)c1.N#C[N-]C#N + O
298.15 K, 101 kPa
Settings	electrical conductivity [S/m]
x1 = 0.0001676	0.072
x1 = 0.0003333	0.132
x1 = 0.0004971	0.18
x1 = 0.0007203	0.265
x1 = 0.0009901	0.347
x1 = 0.001245	0.42
x1 = 0.001513	0.502
x1 = 0.001757	0.558
x1 = 0.002014	0.629
x1 = 0.002115	0.655
x1 = 0.002344	0.698
x1 = 0.002438	0.725
x1 = 0.002706	0.785
x1 = 0.002941	0.824
x1 = 0.00295	0.83
x1 = 0.00329	0.889
x1 = 0.003543	0.944

CC[n+]1ccn(C)c1.COP(=O)([O-])OC + O
101 kPa
Settings	viscosity [mPa·s]
293.15 K, x2 = 0.198	292
298.15 K, x2 = 0.198	212
303.15 K, x2 = 0.198	157.4
318.15 K, x2 = 0.198	73.7
318.15 K, x2 = 0.399	52.73
318.15 K, x2 = 0.799	11.57
328.15 K, x2 = 0.399	35.56
333.15 K, x2 = 0.198	40.33

CC[n+]1ccn(C)c1.F[B-](F)(F)F + O
298 K, 101 kPa
Settings	electrical conductivity [S/m]
x2 = 0.78	8.27
x2 = 0.84	8.63

CC[n+]1ccn(C)c1.O=S(=O)([N-]S(=O)(=O)C(F)(F)F)C(F)(F)F + O
Settings	electrical conductivity [S/m]	viscosity [mPa·s]
297.55 K, 101 kPa, x1 = 0.889	–	26
297.85 K, 101 kPa, x2 = 0.205	1.22	–
298 K, 101 kPa, x2 = 0.02	–	32.3
298 K, 101 kPa, x2 = 0.0629	–	30.8
298 K, 101 kPa, x2 = 0.199	–	25.4
298 K, 101 kPa, x2 = 0.227	–	25.2
298.15 K, 101 kPa, x2 = 0.205	1.3	–
299.15 K, 101 kPa, x2 = 0.205	1.32	–
300.35 K, 101 kPa, x2 = 0.205	1.38	–
302.15 K, 101 kPa, x2 = 0.205	1.45	–
302.85 K, 101 kPa, x2 = 0.205	1.51	–
303.15 K, 100 kPa, x2 = 0.298	–	16.23
303.95 K, 101 kPa, x2 = 0.205	1.61	–
304.95 K, 101 kPa, x2 = 0.205	1.66	–
313.15 K, 100 kPa, x2 = 0.298	–	12.29
333.15 K, 100 kPa, x2 = 0.298	–	7.749

O=C[O-].OCC[NH2+]CCO + O
100 kPa
Settings	viscosity [mPa·s]
293.15 K, x1 = 0.075	3.25
293.15 K, x1 = 0.3185	36.2
293.15 K, x1 = 1	471
303.15 K, x1 = 0.0292	1.34
303.15 K, x1 = 0.7987	172
313.15 K, x1 = 0.075	1.99
333.15 K, x1 = 0.3185	8.4
333.15 K, x1 = 0.7987	40.4
343.15 K, x1 = 0.5932	15.3
343.15 K, x1 = 1	35.9
